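These data come from cells grown in 96-well plates and exposed to compound for 48 hours at five concentrations. GI50 = concentration required for 50% inhibition of growth. TGI denotes the concentration required for complete inhibition of growth.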
Assays:
Experiment in all cases: NCI-60 cell line screen, 48 h
MALME-3M melanoma = tested on: MALME-3M melanoma
SF-268 CNS = tested on: SF-268 CNS
OVCAR-5 ovarian = tested on: OVCAR-5 ovarian
HCT-15 colon = tested on: HCT-15 colon
SF-295 CNS = tested on: SF-295 CNS
786-0 renal = tested on: 786-0 renal
SK-OV-3 ovarian = tested on: SK-OV-3 ovarian
NCI-H23 lung = tested on: NCI-H23 lung
CAKI-1 renal = tested on: CAKI-1 renal
MCF7 breast = tested on: MCF7 breast

Cc1cc2c(C=O)[nH]nc2c(C#N)c1C
TGI (MALME-3M melanoma): > 100 µM
TGI (SF-268 CNS): > 100 µM
TGI (OVCAR-5 ovarian): > 100 µM
TGI (HCT-15 colon): > 100 µM
TGI (SF-295 CNS): > 100 µM
TGI (786-0 renal): > 100 µM
TGI (SK-OV-3 ovarian): > 100 µM
TGI (NCI-H23 lung): > 100 µM

Nc1c(-c2ccc(-c3c(N)[n+]([O-])c4ccccc4[n+]3[O-])cc2)[n+]([O-])c2ccccc2[n+]1[O-]
TGI (CAKI-1 renal): 20.3 µM
TGI (MALME-3M melanoma): 8.57 µM
TGI (SF-268 CNS): 66.2 µM
TGI (OVCAR-5 ovarian): 35.2 µM
TGI (HCT-15 colon): 15.4 µM
TGI (SF-295 CNS): 36.7 µM
TGI (786-0 renal): 26.9 µM
TGI (SK-OV-3 ovarian): 52.7 µM
TGI (NCI-H23 lung): 21.1 µM

CC(=O)Oc1cc(OC(C)=O)c(OC(C)=O)c2c1CC1C(=O)C3(CCc4ccccc43)C(=O)C1C2 (stereo not drawn)
TGI (CAKI-1 renal): 38.3 µM
TGI (MALME-3M melanoma): 20.1 µM
TGI (HCT-15 colon): 39.5 µM
TGI (SF-295 CNS): 17.3 µM
TGI (786-0 renal): 26.4 µM
TGI (SK-OV-3 ovarian): 58.8 µM
TGI (NCI-H23 lung): 40.2 µM

COc1ccc2c(c1)cn1c3ccc(OC)cc3[nH]c(=O)c21
GI50 (CAKI-1 renal): < 0.01 µM
TGI (MALME-3M melanoma): 2.75 µM
GI50 (SF-268 CNS): < 0.0229 µM
TGI (SF-268 CNS): 1.47 µM
GI50 (OVCAR-5 ovarian): < 0.0232 µM
TGI (OVCAR-5 ovarian): 1.81 µM
GI50 (HCT-15 colon): < 0.0177 µM
TGI (HCT-15 colon): 1.11 µM
GI50 (SF-295 CNS): < 0.0169 µM
GI50 (786-0 renal): < 0.0231 µM
TGI (786-0 renal): 1.56 µM
GI50 (SK-OV-3 ovarian): < 0.0192 µM
TGI (SK-OV-3 ovarian): 4.48 µM
GI50 (NCI-H23 lung): < 0.0238 µM
TGI (NCI-H23 lung): 0.934 µM

Cc1cccc(C)c1NC(=O)/C(CC(=O)CC(c1ccccc1)c1c(O)c2ccccc2oc1=O)=N/O (stereo not drawn)
TGI (CAKI-1 renal): > 100 µM
TGI (SF-268 CNS): > 100 µM
TGI (OVCAR-5 ovarian): > 100 µM
TGI (HCT-15 colon): > 100 µM
TGI (MCF7 breast): > 100 µM
TGI (SF-295 CNS): > 100 µM
TGI (786-0 renal): > 100 µM
TGI (SK-OV-3 ovarian): > 100 µM
TGI (NCI-H23 lung): > 100 µM

CC(=O)NC1C(OCc2ccccc2)OC(COC(=O)CCCCCCCCCCNC(=O)CCNc2ccc([N+](=O)[O-])c3[nH]c4ccc(O)cc4c(=O)c23)C(O)C1OC(C)C(=O)N[C@H](C(=O)N[C@H](CCC(=O)O)C(N)=O)C(C)C (stereo partly drawn)
TGI (CAKI-1 renal): > 100 µM
TGI (MALME-3M melanoma): > 100 µM
TGI (SF-268 CNS): > 100 µM
TGI (OVCAR-5 ovarian): > 100 µM
TGI (HCT-15 colon): > 100 µM
TGI (SF-295 CNS): > 100 µM
TGI (786-0 renal): > 100 µM
TGI (SK-OV-3 ovarian): > 100 µM
TGI (NCI-H23 lung): > 100 µM

O=C1OC(=O)C2C1C1(c3ccccc3)OC2(c2ccccc2)c2c(Br)c(Br)c(Br)c(Br)c21 (stereo not drawn)
TGI (CAKI-1 renal): > 100 µM
TGI (MALME-3M melanoma): > 100 µM
TGI (SF-268 CNS): > 100 µM
TGI (OVCAR-5 ovarian): > 100 µM
TGI (HCT-15 colon): > 100 µM
TGI (SF-295 CNS): > 100 µM
TGI (786-0 renal): > 100 µM
TGI (SK-OV-3 ovarian): 74.9 µM
TGI (NCI-H23 lung): > 100 µM

OCC1C2C=CC(O2)[C@H]1CO (stereo partly drawn)
TGI (CAKI-1 renal): > 100 µM
TGI (MALME-3M melanoma): > 100 µM
TGI (SF-268 CNS): > 100 µM
TGI (OVCAR-5 ovarian): > 100 µM
TGI (HCT-15 colon): > 100 µM
TGI (SF-295 CNS): > 100 µM
TGI (786-0 renal): > 100 µM
TGI (SK-OV-3 ovarian): > 100 µM

C/C(=N\O)c1ccc(Nc2cc(-c3ccccc3)nc3c(O)cccc23)cc1
GI50 (CAKI-1 renal): 10.2 µM
TGI (CAKI-1 renal): 35 µM
GI50 (MALME-3M melanoma): 16.1 µM
TGI (MALME-3M melanoma): 30.3 µM
GI50 (OVCAR-5 ovarian): 23.8 µM
TGI (OVCAR-5 ovarian): 47.4 µM
GI50 (HCT-15 colon): 4.75 µM
TGI (HCT-15 colon): 26.4 µM
GI50 (SF-295 CNS): 5.24 µM
TGI (SF-295 CNS): 18.3 µM
GI50 (786-0 renal): 17.2 µM
TGI (786-0 renal): 31.8 µM
GI50 (SK-OV-3 ovarian): 27.4 µM
TGI (SK-OV-3 ovarian): 56.1 µM
GI50 (NCI-H23 lung): 17 µM
TGI (NCI-H23 lung): 49.5 µM

O=C(Nc1ccc(-n2cc(-c3ccncc3)c(-c3ccc(Cl)c(O)c3)n2)cc1)c1ccc(Cl)c(C(F)(F)F)c1
GI50 (CAKI-1 renal): 1.7 µM
TGI (CAKI-1 renal): 3.8 µM
GI50 (SF-268 CNS): 2.68 µM
TGI (SF-268 CNS): > 31.8 µM
GI50 (OVCAR-5 ovarian): 5.25 µM
TGI (OVCAR-5 ovarian): 29.4 µM
GI50 (HCT-15 colon): 0.444 µM
TGI (HCT-15 colon): 2.58 µM
GI50 (MCF7 breast): 1.92 µM
TGI (MCF7 breast): 8.6 µM
GI50 (SF-295 CNS): 0.216 µM
TGI (SF-295 CNS): 0.475 µM
GI50 (786-0 renal): 0.308 µM
TGI (786-0 renal): 0.919 µM
GI50 (SK-OV-3 ovarian): 1.81 µM
TGI (SK-OV-3 ovarian): 8.81 µM
GI50 (NCI-H23 lung): 1.72 µM
TGI (NCI-H23 lung): 5.08 µM
